Data: ChEMBL document CHEMBL1201862, “PubChem BioAssay data set” (2004)
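Method: 48-hour compound exposure of cells in 96-well plates, five concentrations, linear interpolation of endpoints. Abbreviation: GI50, concentration required for 50% inhibition of growth.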 Activity calls are given as the source filed them. Rule as the data show it: active = GI50 up to about 1.1 µM and inactive = higher.

What was measured:
Experiment in all cases: NCI tumour cell line growth inhibition, 48 h
OVCAR-8 = test system: OVCAR-8
NCI-H460 = test system: NCI-H460
TK-10 = test system: TK-10
OVCAR-3 = test system: OVCAR-3
U-251 = test system: U-251
HOP-92 = test system: HOP-92
MCF7 = test system: MCF7
A549 = test system: A549
KM12 = test system: KM12
PC-3 = test system: PC-3
LOX IMVI = test system: LOX IMVI
HCC 2998 = test system: HCC 2998
NCI-H23 = test system: NCI-H23
CCRF-CEM = test system: CCRF-CEM
OVCAR-5 = test system: OVCAR-5
HL-60 = test system: HL-60
SK-OV-3 = test system: SK-OV-3
Malme-3M = test system: Malme-3M
IGROV-1 = test system: IGROV-1
SF-539 = test system: SF-539

Row | SMILES | GI50 (OVCAR-8) | GI50 (NCI-H460) | GI50 (TK-10) | GI50 (OVCAR-3) | GI50 (U-251) | GI50 (HOP-92) | GI50 (MCF7) | GI50 (A549) | GI50 (KM12) | GI50 (PC-3) | GI50 (LOX IMVI) | GI50 (HCC 2998) | GI50 (NCI-H23) | GI50 (CCRF-CEM) | GI50 (OVCAR-5) | GI50 (HL-60) | GI50 (SK-OV-3) | GI50 (Malme-3M) | GI50 (IGROV-1) | GI50 (SF-539)
1 | Cc1ccc(S(=O)(=O)N2CCCN(S(=O)(=O)c3ccc(C)cc3)CC2)cc1 | > 100 µM (inactive) | > 100 µM (inactive) | > 100 µM (inactive) | > 100 µM (inactive) | > 100 µM (inactive) | > 100 µM (inactive) | > 100 µM (inactive) | > 10 µM (inactive) | > 100 µM (inactive) | > 100 µM (inactive) | 0.0578 µM (active) | > 100 µM (inactive) | > 100 µM (inactive) | > 100 µM (inactive) | – | – | – | – | – | –
2 | CN1C(C)(C)CC(=O)C(Br)C1(C)C (stereo unspecified) | > 100 µM (inactive) | > 100 µM (inactive) | > 100 µM (inactive) | > 100 µM (inactive) | > 100 µM (inactive) | > 100 µM (inactive) | > 100 µM (inactive) | > 100 µM (inactive) | > 100 µM (inactive) | > 100 µM (inactive) | > 100 µM (inactive) | – | > 100 µM (inactive) | > 100 µM (inactive) | > 100 µM (inactive) | > 100 µM (inactive) | > 100 µM (inactive) | > 100 µM (inactive) | > 100 µM (inactive) | –
3 | COC(O)C(=O)c1c2c(cc3c1CCC3)CCCC2 (stereo unspecified) | 7.87 µM (inactive) | 7.5 µM (inactive) | 16.3 µM (inactive) | 4.65 µM (inactive) | 14 µM (inactive) | – | 5.27 µM (inactive) | 18.6 µM (inactive) | 8.59 µM (inactive) | 4.32 µM (inactive) | 1.99 µM (inactive) | 1.97 µM (inactive) | 10.7 µM (inactive) | 2.39 µM (inactive) | 18.1 µM (inactive) | 1.56 µM (inactive) | 12 µM (inactive) | 14 µM (inactive) | 4.12 µM (inactive) | 4.32 µM (inactive)
4 | Cc1nc2[nH]ncn2c(=O)c1CCCl | > 10 µM (inactive) | > 10 µM (inactive) | > 10 µM (inactive) | – | > 10 µM (inactive) | – | > 10 µM (inactive) | > 10 µM (inactive) | – | > 10 µM (inactive) | > 10 µM (inactive) | > 10 µM (inactive) | > 10 µM (inactive) | > 10 µM (inactive) | > 10 µM (inactive) | > 10 µM (inactive) | > 10 µM (inactive) | > 10 µM (inactive) | > 10 µM (inactive) | > 10 µM (inactive)
5 | COc1ccc(C2C=C(c3ccc(C)cc3)N(c3ccc(OC)cc3[N+](=O)[O-])C3C(=O)OC(=O)C23)c(OC)c1 (stereo unspecified) | 16.2 µM (inactive) | 71.3 µM (inactive) | 47.5 µM (inactive) | 20.2 µM (inactive) | 45.9 µM (inactive) | – | 42.5 µM (inactive) | 37 µM (inactive) | 7.8 µM (inactive) | 42.4 µM (inactive) | 25.5 µM (inactive) | 29.9 µM (inactive) | 52.4 µM (inactive) | 35.1 µM (inactive) | 48.3 µM (inactive) | 31.8 µM (inactive) | 25 µM (inactive) | 11.1 µM (inactive) | 15.2 µM (inactive) | 24.4 µM (inactive)
6 | O=C(NC1C(=O)NC(CCc2ccccc2)NC1=O)OCc1ccccc1 (stereo unspecified) | > 100 µM (inactive) | > 100 µM (inactive) | > 100 µM (inactive) | > 100 µM (inactive) | > 100 µM (inactive) | > 100 µM (inactive) | > 100 µM (inactive) | > 100 µM (inactive) | > 100 µM (inactive) | > 100 µM (inactive) | > 100 µM (inactive) | – | > 100 µM (inactive) | > 100 µM (inactive) | > 100 µM (inactive) | > 100 µM (inactive) | – | > 100 µM (inactive) | > 100 µM (inactive) | > 100 µM (inactive)
7 | C=C1C(=O)O[C@H]2C/C(C=O)=C\[C@H]3O[C@H]3/C(COC(=O)C(C)C)=C/CC12 (stereo partly specified) | 3.14 µM (inactive) | 10.5 µM (inactive) | 11.8 µM (inactive) | 6.49 µM (inactive) | 7.26 µM (inactive) | – | 5.21 µM (inactive) | 16.9 µM (inactive) | 5.46 µM (inactive) | 1.85 µM (inactive) | 3.21 µM (inactive) | 13.4 µM (inactive) | 4.97 µM (inactive) | 1.83 µM (inactive) | 2.01 µM (inactive) | 2.11 µM (inactive) | – | 10.3 µM (inactive) | 4.65 µM (inactive) | 21.5 µM (inactive)
8 | CC(=O)O[C@H]1CC[C@H]2[C@@H]3CCC4=C/C(=N/OCCN(C)C)CC[C@]4(C)[C@H]3CC[C@]12C | 13.4 µM (inactive) | 8.22 µM (inactive) | 11.3 µM (inactive) | 12.8 µM (inactive) | 13.3 µM (inactive) | – | 5.64 µM (inactive) | 12 µM (inactive) | 5.61 µM (inactive) | 12.5 µM (inactive) | 3.16 µM (inactive) | 6.43 µM (inactive) | 12.9 µM (inactive) | 2.52 µM (inactive) | 16.9 µM (inactive) | 1.88 µM (inactive) | 12.2 µM (inactive) | 13.3 µM (inactive) | 13.1 µM (inactive) | 2.52 µM (inactive)
9 | CCOC(=O)Cn1nnc2cc(Nc3c(C)[n+]([O-])c4cc(F)c(OCC)cc4[n+]3[O-])ccc21 | > 100 µM (inactive) | > 100 µM (inactive) | 24.9 µM (inactive) | > 100 µM (inactive) | 32.5 µM (inactive) | 13.6 µM (inactive) | > 100 µM (inactive) | – | > 100 µM (inactive) | > 100 µM (inactive) | > 100 µM (inactive) | – | > 100 µM (inactive) | > 100 µM (inactive) | > 100 µM (inactive) | > 100 µM (inactive) | 38.6 µM (inactive) | – | 96.2 µM (inactive) | > 100 µM (inactive)
10 | CC(C)CC(C(N)=O)C(=O)NC(Cc1ccccc1)NC(=O)CNC(=O)C(C)NC(=O)C(N)Cc1ccc(O)cc1 (stereo unspecified) | > 100 µM (inactive) | > 100 µM (inactive) | > 100 µM (inactive) | > 100 µM (inactive) | > 100 µM (inactive) | – | > 100 µM (inactive) | > 100 µM (inactive) | > 100 µM (inactive) | > 100 µM (inactive) | > 100 µM (inactive) | > 100 µM (inactive) | > 100 µM (inactive) | > 100 µM (inactive) | > 100 µM (inactive) | > 100 µM (inactive) | > 100 µM (inactive) | > 100 µM (inactive) | > 100 µM (inactive) | > 100 µM (inactive)
11 | Cc1cc(N(CCC#N)CCC#N)ccc1C(/N=N/c1ccc(Cl)cc1)=N\NC(=O)c1ccccc1 | 42.1 µM (inactive) | 39.7 µM (inactive) | 60.5 µM (inactive) | 42.1 µM (inactive) | 40.7 µM (inactive) | – | 13.6 µM (inactive) | 42.7 µM (inactive) | 20.2 µM (inactive) | 32.5 µM (inactive) | – | 31 µM (inactive) | 33.7 µM (inactive) | 31.5 µM (inactive) | > 100 µM (inactive) | 25.5 µM (inactive) | 42.6 µM (inactive) | 20.4 µM (inactive) | 24.5 µM (inactive) | 7.62 µM (inactive)
12 | C=C1C(=O)O[C@H]2C1C[C@H](O)[C@@]1(C)OC1CC[C@@]1(C)O[C@H]21 (stereo partly specified) | 19 µM (inactive) | > 100 µM (inactive) | 19.8 µM (inactive) | – | > 100 µM (inactive) | 20.6 µM (inactive) | 15.4 µM (inactive) | > 100 µM (inactive) | 25.1 µM (inactive) | 17.8 µM (inactive) | – | 14.7 µM (inactive) | 19.5 µM (inactive) | 2.61 µM (inactive) | 16.9 µM (inactive) | – | 61.8 µM (inactive) | 12 µM (inactive) | 14.9 µM (inactive) | –
13 | COc1ccc(-c2oc3cc(OC(C)=O)cc(OC(C)=O)c3c(=O)c2OC)cc1 | 17 µM (inactive) | 16.9 µM (inactive) | 21.8 µM (inactive) | 15 µM (inactive) | 14.2 µM (inactive) | – | 20.7 µM (inactive) | 20.7 µM (inactive) | – | 17.9 µM (inactive) | 14.5 µM (inactive) | 18.3 µM (inactive) | – | 18.2 µM (inactive) | 23.3 µM (inactive) | 12.1 µM (inactive) | 28.8 µM (inactive) | 26.5 µM (inactive) | 16.2 µM (inactive) | –
14 | COc1cc2ccccc2c2cc([N+](=O)[O-])oc12 | 1.9 µM (inactive) | 0.183 µM (active) | 0.173 µM (active) | 1.43 µM (inactive) | 1.17 µM (inactive) | 0.78 µM (active) | 0.35 µM (active) | 0.294 µM (active) | 1.43 µM (inactive) | 3.04 µM (inactive) | 0.314 µM (active) | – | 1.2 µM (inactive) | 0.26 µM (active) | 3.39 µM (inactive) | 5.26 µM (inactive) | 0.49 µM (active) | 0.126 µM (active) | 1.25 µM (inactive) | 0.91 µM (active)
15 | O=C1c2cccnc2-c2nccc3c2c1nc1ccccc13 [ASCIDIDEMIN] | 0.0505 µM (active) | 0.0879 µM (active) | 1.27 µM (inactive) | 0.0318 µM (active) | 0.0845 µM (active) | 0.49 µM (active) | 0.0708 µM (active) | 0.255 µM (active) | 0.183 µM (active) | 0.188 µM (active) | 0.0512 µM (active) | – | 0.172 µM (active) | 0.501 µM (active) | 0.475 µM (active) | 0.1 µM (active) | 0.272 µM (active) | 0.231 µM (active) | 0.31 µM (active) | 0.189 µM (active)
